The target in one experiment is T1, Bcl-xL protein (Homo sapiens, UniProt Q07817, N197C).
T1 construct: (2-197)[N197C]; His-His (two His8 stretches joined by a Gly/Ala/Ser/Thr linker)
Kind of experiment: Fluorescence quenching assay (PUMA peptide displacement). The class given is binding. Conditions: 1 nM protein, 400 nM peptide, 2 hours at 23° C.; KI determined from IC50. The essentials: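 Compounds were tested as an 11-point series in pH 7.4 HEPES/NaCl/Tween buffer with 5% DMSO, 2 h at 23 °C. Cy5-tagged Bcl-xL(2-197, N197C) at 1 nM and quencher-tagged PUMA peptide at 400 nM were used. Competitive binders restore fluorescence (620/680 nm), and IC50 values were converted to KI.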

Another experiment concerns MOLT-4 cells. Description: MOLT-4 cell viability, MTT assay. As to conditions: Homo sapiens, MOLT-4, 48 h, 48 h exposure. The class given is cell-based. The essentials:
(§1)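 Viability read by MTT reduction (OD 540 nm after overnight SDS/HCl lysis) after 48 h compound treatment of cells in RPMI 1640/10% FBS. Triplicates at nine concentrations, 3.16-fold apart; four-parameter curve fitting yields IC50.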

Experiment [1] has as its target T2, BCLXL (Homo sapiens, UniProt Q07817, V10N/V9A). Kind of experiment: AlphaLISA assay (BIM peptide displacement). Conditions: 20 pM protein, 1 nM peptide. In kind it is binding. The method in brief: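 Competitive displacement of fluorescein-labelled BIM peptide (1 nM) from biotinylated GST-BCL-XL(2-209) (20 pM) in 10 mM HEPES, 150 mM NaCl, 0.05% Tween 20, pH 7.4, 4% DMSO; 11-point dilutions. Overnight at 23° C with acceptor beads, then donor beads 2 h; Alpha signal at 615 nm.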

The subject of the next experiment is H146 cells. Description: H146 cell viability, MTT assay. In kind it is cell-based. Conditions: Homo sapiens, NCI-H146, 48 h, 48 h exposure. The essentials:
as §1

Experiment [2] addresses T2, BCLXL. Description: Fluorescence polarisation assay (PUMA-based probe displacement). Note: 20 nM protein, 10 nM fluorescent probe. In kind it is binding.

We go through 16 molecules from patent US12649733B2, “3,6-diamino-pyridazin-3-yl derivatives, pharmaceutical compositions containing them and their uses as pro-apoptotic agents” (LES LABORATOIRES SERVIER, priority 2019, dated 2026).

pIC50, pKi: −log10 of the molar value.

T1 sequence (Q07817 2-197 N197C): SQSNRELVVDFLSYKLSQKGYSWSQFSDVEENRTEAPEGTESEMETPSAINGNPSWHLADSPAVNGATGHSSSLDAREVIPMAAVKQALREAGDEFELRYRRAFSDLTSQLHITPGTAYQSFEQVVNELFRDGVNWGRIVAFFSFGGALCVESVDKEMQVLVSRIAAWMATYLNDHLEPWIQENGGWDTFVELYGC
T2 sequence (Q07817 with tags, fused parts or gaps V9A/V10N): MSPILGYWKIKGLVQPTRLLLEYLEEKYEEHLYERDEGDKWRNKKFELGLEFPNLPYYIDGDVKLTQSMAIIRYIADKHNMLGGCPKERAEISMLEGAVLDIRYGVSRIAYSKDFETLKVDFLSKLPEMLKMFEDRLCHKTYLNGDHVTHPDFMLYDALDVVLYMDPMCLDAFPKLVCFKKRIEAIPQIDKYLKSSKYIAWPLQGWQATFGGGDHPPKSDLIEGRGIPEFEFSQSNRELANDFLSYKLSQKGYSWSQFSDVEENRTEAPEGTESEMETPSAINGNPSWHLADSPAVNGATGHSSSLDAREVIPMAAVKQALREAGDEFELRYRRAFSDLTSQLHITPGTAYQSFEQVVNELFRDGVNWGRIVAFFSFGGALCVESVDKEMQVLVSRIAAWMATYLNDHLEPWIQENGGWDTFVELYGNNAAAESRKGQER

In the case of `CNCC#Cc1ccc(OCCCc2sc(N(CCCCO)c3cc(C)c(Nc4nc5ccccc5s4)nn3)nc2C(=O)O)c(F)c1` [Example 114, 2-({6-[(1,3-Benzothiazol-2-yl)amino]-5-methylpyridazin-3-yl}(4-hydroxybutyl)amino)-5-(3-{2-fluoro-4-[3-(methylamino)prop-1-yn-1-yl]phenoxy}propyl)-1,3-thiazole-4-carboxylic acid], at Bcl-xL protein, the pKi was 10.96. The pIC50 in the experiment on MOLT-4 cells was 8.42; on BCLXL [1] it was 10.28; with H146 cells, 8.80.
As for `Cc1cc(N(C)c2nc(C(=O)O)c(CC(C)COc3ccc(C#CCN(C)C)cc3F)s2)nnc1Nc1nc2ccccc2s1` (stereo not drawn) [Example 116, 2-({6-[(1,3-Benzothiazol-2-yl)amino]-5-methylpyridazin-3-yl}(methyl)amino)-5-(3-{4-[3-(dimethylamino)prop-1-yn-1-yl]-2-fluorophenoxy}-2-methylpropyl)-1,3-thiazole-4-carboxylic acid], the pKi on Bcl-xL protein was 11.07. Also, the pIC50 is 8.51 in the experiment on MOLT-4 cells, 10.77 at BCLXL [1] and 7.72 in the experiment on H146 cells.
In the same order, the values of `CNCC#Cc1ccc(OCCCc2sc(N(CC(O)CO)c3cc(C)c(Nc4nc5ccccc5s4)nn3)nc2C(=O)O)c(F)c1` (stereo not drawn) [Example 117, 2-[[6-(1,3-Benzothiazol-2-ylamino)-5-methyl-pyridazin-3-yl]-(2,3-dihydroxypropyl)amino]-5-[3-[2-fluoro-4-[3-(methylamino)prop-1-ynyl]phenoxy]propyl]thiazole-4-carboxylic acid] are 11.18, 6.31, 11.00 and 7.30.
The like results for `CNCC#Cc1ccc(OCCCc2sc(N(CC(CO)OC)c3cc(C)c(Nc4nc5ccccc5s4)nn3)nc2C(=O)O)c(F)c1` (stereo not drawn) [Example 118, 2-[[6-(1,3-Benzothiazol-2-ylamino)-5-methyl-pyridazin-3-yl]-(3-hydroxy-2-methoxy-propyl)amino]-5-[3-[2-fluoro-4-[3-(methylamino)prop-1-ynyl]phenoxy]propyl]thiazole-4-carboxylic acid] were, in that order, 10.48, 7.02, 10.74 and 7.49.
Take `CNCC#Cc1ccc(OCCCc2sc(N(CCCC(O)CO)c3cc(C)c(Nc4nc5ccccc5s4)nn3)nc2C(=O)O)c(F)c1` (stereo not drawn) [Example 119, 2-[[6-(1,3-Benzothiazol-2-ylamino)-5-methyl-pyridazin-3-yl]-(4,5-dihydroxypentyl)amino]-5-[3-[2-fluoro-4-[3-(methylamino)prop-1-ynyl]phenoxy]propyl]thiazole-4-carboxylic acid]: the pIC50 in the experiment with MOLT-4 cells is 7.01; on BCLXL [1], 11.22; in the experiment on H146 cells it was 7.67. In addition, on BCLXL [2], the pKi was > 9.00.
Take `Cc1cc(N(CC(O)CO)c2nc(C(=O)O)c(CCCOc3ccc(C#CCN(C)C)cc3F)s2)nnc1Nc1nc2ccccc2s1` (stereo not drawn) [Example 122, 2-[[6-(1,3-Benzothiazol-2-ylamino)-5-methyl-pyridazin-3-yl]-(2,3-dihydroxypropyl)amino]-5-[3-[4-[3-(dimethylamino)prop-1-ynyl]-2-fluoro-phenoxy]propyl]thiazole-4-carboxylic acid]: at Bcl-xL protein, the pKi was 11.52. The pIC50 in the experiment on MOLT-4 cells is 6.55; on BCLXL [1] it was 11.01; in the experiment with H146 cells, 7.29.
Regarding `Cc1cc(N(CCC(O)CO)c2nc(C(=O)O)c(CCCOc3ccc(C#CCN(C)C)cc3F)s2)nnc1Nc1nc2ccccc2s1` (stereo not drawn) [Example 123, 2-[[6-(1,3-Benzothiazol-2-ylamino)-5-methyl-pyridazin-3-yl]-(3,4-dihydroxybutyl)amino]-5-[3-[4-[3-(dimethylamino)prop-1-ynyl]-2-fluoro-phenoxy]propyl]thiazole-4-carboxylic acid], the pIC50 in the experiment with MOLT-4 cells was 7.78; on BCLXL [1], 11.40; in the experiment on H146 cells, 8.20. In addition, at BCLXL [2], the pKi is > 9.00.
Take `CNCC#Cc1ccc(OCCCc2sc(N(CCCO)c3cc(C)c(Nc4nc5ccccc5s4)nn3)nc2C(=O)O)c(F)c1` [Example 127, 2-[[6-(1,3-Benzothiazol-2-ylamino)-5-methyl-pyridazin-3-yl]-(3-hydroxypropyl)amino]-5-[3-[2-fluoro-4-[3-(methylamino)prop-1-ynyl]phenoxy]propyl]thiazole-4-carboxylic acid]: the figures for the pIC50 in the experiment with MOLT-4 cells, at BCLXL [1] and in the experiment on H146 cells were 7.95, 11.18 and 8.04, respectively. Also, the pKi at BCLXL [2] is > 9.00.
In the case of `CNCC#Cc1ccc(OCCCc2sc(N(CCCCCO)c3cc(C)c(Nc4nc5ccccc5s4)nn3)nc2C(=O)O)c(F)c1` [Example 128], the pKi at Bcl-xL protein is 10.55. Also, the pIC50 is 7.74 in the experiment on MOLT-4 cells, 10.89 on BCLXL [1] and 7.68 in the experiment with H146 cells.
Regarding `Cc1cc(N(CCCCO)c2nc(C(=O)O)c(CCCOc3ccc(C#CC[N+](C)(C)CCCS(=O)(=O)[O-])cc3F)s2)nnc1Nc1nc2ccccc2s1` [Example 130, 3-[3-[4-[3-[2-[[6-(1,3-Benzothiazol-2-ylamino)-5-methyl-pyridazin-3-yl]-(4-hydroxybutyl)amino]-4-carboxy-thiazol-5-yl]propoxy]-3-fluoro-phenyl]prop-2-ynyl-dimethyl-ammonio]propane-1-sulfonate], the pIC50 in the experiment with MOLT-4 cells was 6.97; at BCLXL [1], 11.27; in the experiment on H146 cells, 6.70. For the same molecule, on BCLXL [2], the pKi was > 9.00.
The like results for `Cc1cc(N(C)c2nc(C(=O)O)c(CC3(COc4ccc(C#CCN(C)C)cc4F)CC3)s2)nnc1Nc1nc2ccccc2s1` [Example 140, 2-({6-[(1,3-Benzothiazol-2-yl)amino]-5-methylpyridazin-3-yl}(methyl)amino)-5-{[1-({4-[3-(dimethylamino)prop-1-yn-1-yl]-2-fluorophenoxy}methyl)cyclopropyl]methyl}-1,3-thiazole-4-carboxylic acid] were, in that order, 7.63, 10.62, 6.85 and > 9.00.
`Cc1cc(N(CCCCO)c2nc(C(=O)O)c(CCCOc3ccc(C#CCN(CCCS(=O)(=O)O)CCCS(=O)(=O)O)cc3F)s2)nnc1Nc1nc2ccccc2s1` [Example 147, 2-({6-[(1,3-Benzothiazol-2-yl)amino]-5-methylpyridazin-3-yl}(4-hydroxybutyl)amino)-5-[3-(4-{3-[bis(3-sulfopropyl)amino]prop-1-yn-1-yl}-2-fluorophenoxy)propyl]-1,3-thiazole-4-carboxylic acid]: the pKi at Bcl-xL protein is 11.01. Also, on BCLXL [1], the pIC50 was 11.15.
Take `Cc1cc(N(CCCCO)c2nc(C(=O)O)c(CCCOc3ccc(C#CCNCCCS(=O)(=O)O)cc3F)s2)nnc1Nc1nc2ccccc2s1` [Example 148, 2-[[6-(1,3-Benzothiazol-2-ylamino)-5-methyl-pyridazin-3-yl]-(4-hydroxybutyl)amino]-5-[3-[2-fluoro-4-[3-(3-sulfopropylamino)prop-1-ynyl]phenoxy]propyl]thiazole-4-carboxylic acid]: the pKi on Bcl-xL protein was 11.92. The pIC50 at BCLXL [1] is 11.24.
As for `Cc1cc(N(C)c2nc(C(=O)O)c(C[C@H](C)COc3ccc(C#CCN(C)C)cc3F)s2)nnc1Nc1nc2ccccc2s1` [Example 161, 2-({6-[(1,3-Benzothiazol-2-yl)amino]-5-methylpyridazin-3-yl}(methyl)amino)-5-[(2S)-3-{4-[3-(dimethylamino)prop-1-yn-1-yl]-2-fluorophenoxy}-2-methylpropyl]-1,3-thiazole-4-carboxylic acid], the figures for the pIC50 in the experiment on MOLT-4 cells, at BCLXL [1] and in the experiment on H146 cells were 8.49, 10.49 and 7.52, respectively. For the same molecule, the pKi at BCLXL [2] is > 9.00.
Take `Cc1cc(N(CCCC(O)CNCCN2CCCCC2)c2nc(C(=O)O)c(CCCOc3ccc(C#CCN(C)C)cc3F)s2)nnc1Nc1nc2ccccc2s1` (stereo not drawn) [Example 173, 2-[[6-(1,3-Benzothiazol-2-ylamino)-5-methyl-pyridazin-3-yl]-[4-hydroxy-5-[2-(1-piperidyl)ethylamino]pentyl]amino]-5-[3-[4-[3-(dimethylamino)prop-1-ynyl]-2-fluoro-phenoxy]propyl]thiazole-4-carboxylic acid]: the pKi at Bcl-xL protein is 11.48. The pIC50 in the experiment with MOLT-4 cells was 6.90; at BCLXL [1], 11.10; in the experiment on H146 cells, 6.68.
The like results for `CNCC#Cc1ccc(OC/C(C)=C/c2sc(N(C)c3cc(C)c(Nc4nc5ccccc5s4)nn3)nc2C(=O)O)c(F)c1` [Example 174, 2-({6-[(1,3-Benzothiazol-2-yl)amino]-5-methylpyridazin-3-yl}(methyl)amino)-5-[(1E)-3-{2-fluoro-4-[3-(methylamino)prop-1-yn-1-yl]phenoxy}-2-methylprop-1-en-1-yl]-1,3-thiazole-4-carboxylic acid] were, in that order, 10.37, 5.78, 9.22 and 4.90.

As a reminder, the pKi is −log10 of the Ki, conventionally taken in molar units. As usually defined, the pIC50 is the negative decadic logarithm of the IC50, by convention in mol/L.
